Laboratory results as given in US9914730B2, “Azaquinazoline inhibitors of Atypical protein Kinase C” (Ignyta, Inc., priority 2012, dated 2018).

target: T1, full-length human PKCι (Homo sapiens, UniProt P41743); test: PKCι IC50 IMAP assay, full-length PKCι at 150 μM ATP; type: biochemical; settings: read-out: IC50 in IMAP assay against full length PKCi at 150 μM ATP
T1 construct: Recombinant, full-length human PKCι expressed in Sf21 insect cells is also commercially available; purchased; host or cells: Sf21 insect cells
T1 sequence (P41743 1-596): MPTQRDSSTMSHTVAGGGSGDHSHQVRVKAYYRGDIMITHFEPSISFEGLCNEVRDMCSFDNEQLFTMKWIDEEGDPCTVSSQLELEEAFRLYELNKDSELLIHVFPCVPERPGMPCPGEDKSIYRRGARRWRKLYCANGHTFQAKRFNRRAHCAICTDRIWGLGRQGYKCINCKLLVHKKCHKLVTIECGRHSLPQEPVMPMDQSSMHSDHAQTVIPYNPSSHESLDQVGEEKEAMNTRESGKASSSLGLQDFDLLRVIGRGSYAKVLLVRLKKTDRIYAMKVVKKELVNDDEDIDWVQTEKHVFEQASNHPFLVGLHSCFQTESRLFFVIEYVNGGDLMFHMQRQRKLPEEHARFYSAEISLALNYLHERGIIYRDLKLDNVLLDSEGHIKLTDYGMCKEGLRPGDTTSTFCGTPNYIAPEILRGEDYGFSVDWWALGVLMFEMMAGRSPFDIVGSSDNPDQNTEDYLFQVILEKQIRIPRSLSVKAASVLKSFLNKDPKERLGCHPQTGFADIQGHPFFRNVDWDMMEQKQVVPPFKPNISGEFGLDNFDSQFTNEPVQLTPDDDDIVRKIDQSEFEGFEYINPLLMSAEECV
How it was run: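 Compounds in 4% final DMSO are mixed with Sf21-derived full-length human PKCι (typically 15 pM) and 100 nM FAM-labelled pseudosubstrate peptide, then started with 150 μM ATP. Reaction runs 60 min at room temperature, is quenched with IMAP development reagent for 2 h, and fluorescence polarisation is measured to derive IC50.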

| Structure (SMILES) | IC50 [nM] |
| --- | --- |
| COc1cncc2nc(-c3ccnc(Nc4ccc(C(F)(F)F)nc4)c3)nc(N3CCNCC3)c12 [Example 395, [4-(5-Methoxy-4-piperazin-1-yl-pyrido[3,4-d]pyrimidin-2-yl)-pyridin-2-yl]-(6-trifluoromethyl-pyridin-3-yl)-amine] | 100 to 1000 |
| COc1cncc2nc(-c3ccnc(Nc4cc(C#N)ccn4)c3)nc(N3CCN(C)CC3)c12 [Example 397, 2-{4-[5-Methoxy-4-(4-methyl-piperazin-1-yl)-pyrido[3,4-d]pyrimidin-2-yl]-pyridin-2-ylamino}-isonicotinonitrile] | 100 to 1000 |
| COc1cncc2nc(-c3ccnc(NC(=O)Cc4cccc(Cl)c4)c3)nc(N3CCN(C)CC3)c12 [Example 398, 2-(3-Chloro-phenyl)-N-{4-[5-methoxy-4-(4-methyl-piperazin-1-yl)-pyrido[3,4-d]pyrimidin-2-yl]-pyridin-2-yl}-acetamide] | 100 to 1000 |
| COc1cncc2nc(-c3ccnc(Nc4cc(C#N)ccn4)c3)nc(N3CCC(O)CC3)c12 [Example 402, 2-{4-[4-(4-Hydroxy-piperidin-1-yl)-5-methoxy-pyrido[3,4-d]pyrimidin-2-yl]-pyridin-2-ylamino}-isonicotinonitrile] | 100 to 1000 |
| COc1cncc2nc(-c3ccnc(NC(=O)Cc4cccc(C#N)c4)c3)nc(N3CCC(O)CC3)c12 [Example 403, 2-(3-Cyano-phenyl)-N-{4-[4-(4-hydroxy-piperidin-1-yl)-5-methoxy-pyrido[3,4-d]pyrimidin-2-yl]-pyridin-2-yl}-acetamide] | 100 to 1000 |
| COc1cncc2nc(-c3ccnc(NC(=O)Cc4cccc(C#N)c4)c3)nc(N3CCN(C)CC3)c12 [Example 404, 2-(3-Cyano-phenyl)-N-{4-[5-methoxy-4-(4-methyl-piperazin-1-yl)-pyrido[3,4-d]pyrimidin-2-yl]-pyridin-2-yl}-acetamide] | 100 to 1000 |
| COc1cncc2nc(-c3ccnc(NC(=O)[C@H](C)c4ccccc4)c3)nc(N[C@@H]3CCNC3)c12 [Example 406, (R)-N-{4-[5-Methoxy-4-((R)-pyrrolidin-3-ylamino)-pyrido[3,4-d]pyrimidin-2-yl]-pyridin-2-yl}-2-phenyl-propionamide] | 100 to 1000 |
| COc1cncc2nc(-c3ccnc(NC(=O)[C@@H](C)c4ccccc4)c3)nc(N[C@@H]3CCNC3)c12 [Example 407, (S)-N-{4-[5-Methoxy-4-((R)-pyrrolidin-3-ylamino)-pyrido[3,4-d]pyrimidin-2-yl]-pyridin-2-yl}-2-phenyl-propionamide] | 100 to 1000 |
| COc1cncc2nc(-c3ccnc(NC(=O)[C@H](C)c4ccccc4)c3)nc(N3CCNCC3)c12 [Example 408, (R)-N-[4-(5-Methoxy-4-piperazin-1-yl-pyrido[3,4-d]pyrimidin-2-yl)-pyridin-2-yl]-2-phenyl-propionamide] | 100 to 1000 |
| COc1cncc2nc(-c3ccnc(NC(=O)[C@@H](C)c4ccccc4)c3)nc(N3CCNCC3)c12 [Example 409, (S)-N-[4-(5-Methoxy-4-piperazin-1-yl-pyrido[3,4-d]pyrimidin-2-yl)-pyridin-2-yl]-2-phenyl-propionamide] | 100 to 1000 |
| COc1cncc2nc(-c3ccnc(Nc4ncccc4C)c3)nc(N3CCNCC3)c12 [Example 410, [4-(5-Methoxy-4-piperazin-1-yl-pyrido[3,4-d]pyrimidin-2-yl)-pyridin-2-yl]-(3-methyl-pyridin-2-yl)-amine] | 100 to 1000 |
| COc1cncc2nc(-c3ccnc(Nc4cncc(Cl)c4)c3)nc(N3CCNCC3)c12 [Example 417, (5-Chloro-pyridin-3-yl)-[4-(5-methoxy-4-piperazin-1-yl-pyrido[3,4-d]pyrimidin-2-yl)-pyridin-2-yl]-amine] | 100 to 1000 |
| COc1cncc2nc(-c3ccnc(Nc4ccc(N5CCOCC5)cc4F)c3)nc(N3CCNCC3)c12 [Example 418, (2-Fluoro-4-morpholin-4-yl-phenyl)-[4-(5-methoxy-4-piperazin-1-yl-pyrido[3,4-d]pyrimidin-2-yl)-pyridin-2-yl]-amine] | < 100 |
| COc1cncc2nc(-c3ccnc(Nc4ccc(C#N)cc4F)c3)nc(N3CCNCC3)c12 [Example 419, 3-Fluoro-4-[4-(5-methoxy-4-piperazin-1-yl-pyrido[3,4-d]pyrimidin-2-yl)-pyridin-2-ylamino]-benzonitrile] | 100 to 1000 |
| COc1cncc2nc(-c3ccnc(Nc4cc(C#N)ccc4F)c3)nc(N3CCNCC3)c12 [Example 420, 4-Fluoro-3-[4-(5-methoxy-4-piperazin-1-yl-pyrido[3,4-d]pyrimidin-2-yl)-pyridin-2-ylamino]-benzonitrile] | 100 to 1000 |
| COc1cncc2nc(-c3ccnc(Nc4c(F)cccc4F)c3)nc(N3CCNCC3)c12 [Example 421, (2,6-Difluoro-phenyl)-[4-(5-methoxy-4-piperazin-1-yl-pyrido[3,4-d]pyrimidin-2-yl)-pyridin-2-yl]-amine] | < 100 |

Next, values leading:

| IC50 [nM] | Structure (SMILES) |
| --- | --- |
| < 100 | COc1cncc2nc(-c3ccnc(NC(=O)Cc4ccc(C(F)(F)F)cc4)c3)nc(N3CCNCC3)c12 [Example 391, N-[4-(5-Methoxy-4-piperazin-1-yl-pyrido[3,4-d]pyrimidin-2-yl)-pyridin-2-yl]-2-(4-trifluoromethyl-phenyl)-acetamide] |
| < 100 | COc1cncc2nc(-c3ccnc(Nc4ccc(-c5ccccc5)nc4)c3)nc(N3CCNCC3)c12 [Example 392, [4-(5-Methoxy-4-piperazin-1-yl-pyrido[3,4-d]pyrimidin-2-yl)-pyridin-2-yl]-(6-phenyl-pyridin-3-yl)-amine] |
| < 100 | COc1cncc2nc(-c3ccnc(Nc4ccc(C)nc4)c3)nc(N3CCNCC3)c12 [Example 393, [4-(5-Methoxy-4-piperazin-1-yl-pyrido[3,4-d]pyrimidin-2-yl)-pyridin-2-yl]-(6-methyl-pyridin-3-yl)-amine] |
| < 100 | COc1ccc(Nc2cc(-c3nc(N4CCNCC4)c4c(OC)cncc4n3)ccn2)cn1 [Example 394, [4-(5-Methoxy-4-piperazin-1-yl-pyrido[3,4-d]pyrimidin-2-yl)-pyridin-2-yl]-(6-methoxy-pyridin-3-yl)-amine] |
| < 100 | COc1cncc2nc(-c3ccnc(NC(=O)Cc4cccnc4)c3)nc(N[C@@H]3CCNC3)c12 [Example 396, N-{4-[5-Methoxy-4-((R)-pyrrolidin-3-ylamino)-pyrido[3,4-d]pyrimidin-2-yl]-pyridin-2-yl}-2-pyridin-3-yl-acetamide] |
| < 100 | COc1cncc2nc(-c3ccnc(NC(=O)Cc4cccnc4)c3)nc(N3CCNCC3)c12 [Example 399, N-[4-(5-Methoxy-4-piperazin-1-yl-pyrido[3,4-d]pyrimidin-2-yl)-pyridin-2-yl]-2-pyridin-3-yl-acetamide] |
| < 100 | COc1cncc2nc(-c3ccnc(NC(=O)Cc4ccncc4)c3)nc(N3CCNCC3)c12 [Example 400, N-[4-(5-Methoxy-4-piperazin-1-yl-pyrido[3,4-d]pyrimidin-2-yl)-pyridin-2-yl]-2-pyridin-4-yl-acetamide] |
| < 100 | COc1ccnc(Nc2cc(-c3nc(N4CCNCC4)c4c(OC)cncc4n3)ccn2)c1 [Example 401, [4-(5-Methoxy-4-piperazin-1-yl-pyrido[3,4-d]pyrimidin-2-yl)-pyridin-2-yl]-(4-methoxy-pyridin-2-yl)-amine] |
| < 100 | COc1cncc2nc(-c3ccnc(Nc4ncccc4F)c3)nc(N3CCNCC3)c12 [Example 411, (3-Fluoro-pyridin-2-yl)-[4-(5-methoxy-4-piperazin-1-yl-pyrido[3,4-d]pyrimidin-2-yl)-pyridin-2-yl]-amine] |
| < 100 | COc1cncc2nc(-c3ccnc(Nc4ccc(N5CCNCC5)nc4)c3)nc(N3CCNCC3)c12 [Example 412, [4-(5-Methoxy-4-piperazin-1-yl-pyrido[3,4-d]pyrimidin-2-yl)-pyridin-2-yl]-(6-piperazin-1-ylpyridin-3-yl)-amine] |
| < 100 | COc1cncc2nc(-c3ccnc(Nc4ccc(N5CCN(C)CC5)cc4C)c3)nc(N3CCNCC3)c12 [Example 413, [4-(5-Methoxy-4-piperazin-1-yl-pyrido[3,4-d]pyrimidin-2-yl)-pyridin-2-yl]-[2-methyl-4-(4-methyl-piperazin-1-yl)-phenyl]-amine] |
| < 100 | COc1cncc2nc(-c3ccnc(Nc4cnn(C5CCNCC5)c4)c3)nc(N3CCNCC3)c12 [Example 414, [4-(5-Methoxy-4-piperazin-1-yl-pyrido[3,4-d]pyrimidin-2-yl)-pyridin-2-yl]-(1-piperidin-4-yl-1H-pyrazol-4-yl)-amine] |
| < 100 | COc1cncc2nc(-c3ccnc(Nc4cccc(C)n4)c3)nc(N3CCNCC3)c12 [Example 415, [4-(5-Methoxy-4-piperazin-1-yl-pyrido[3,4-d]pyrimidin-2-yl)-pyridin-2-yl]-(6-methyl-pyridin-2-yl)-amine] |
| < 100 | COc1cncc2nc(-c3ccnc(Nc4cncc(C)c4)c3)nc(N3CCNCC3)c12 [Example 416, [4-(5-Methoxy-4-piperazin-1-yl-pyrido[3,4-d]pyrimidin-2-yl)-pyridin-2-yl]-(5-methyl-pyridin-3-yl)-amine] |
